The record followed here is patent publication US20230295234A1, “ANTIMICROBIAL PEPTIDOMIMETICS” (SPEXIS AG, priority 2020, published 2023).

Like-named read-outs stand apart in the source and are kept apart here. Bridge positions count the residues as written; N and C are the ends. Square brackets hold non-standard residues; d marks the D form. Peptide text beside a SMILES is read from it. * marks the point of attachment. Val(Nα-amidino) = CC(C)[C@H](NC(=N)N)C(=O)*; Pro(4R-NH2) = N[C@H]1CN[C@H](C(=O)O)C1; Gly(N-2-aminoethyl) = NCCNCC(=O)O; Hyp = O=C(O)[C@@H]1C[C@@H](O)CN1; Pen = CC(C)(S)[C@H](N)C(=O)O; dDab = NCC[C@@H](N)C(=O)O; Dab = NCC[C@H](N)C(=O)O

The test system of data set [1] is Escherichia coli MCR-1 Af 45. In outline:
(§1)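 Activity is measured against peptides serially diluted two-fold in water with 0.002% final Polysorbate 80. The cells are in cation-adjusted MHII broth at roughly 5×10^5 CFU/mL, prepared from a 0.5 McFarland suspension in 0.85% NaCl.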

In data set [2] the test system is Klebsiella pneumoniae SSI3010. The settings on record: SSI3010. In outline:
as §1

The subject of data set [3] is Escherichia coli ATCC 25922. The settings on record: ATCC 25922. In a few lines: as §1
In data set [4] the test system is human red blood cells (hRBC). The experiment in a line: Hemolysis of human red blood cells. The format is cell-based. The settings on record: red cells of human, 1 h. In a few lines:
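PBS-washed human red blood cells (20% v/v) were incubated with peptide at 200 μg/mL for 1 h at 37 °C with shaking. Supernatant OD was read at 540 nm after 8-fold dilution. Hemolysis is expressed as percent of the water control.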

[5] abbreviates: Mueller-Hinton broth II, 18-20 hours at 35° C.

Regarding `CC[C@H](C)[C@H](NC(=O)[C@@H](NC(=O)[C@@H]1CCCN1C(=O)[C@@H](NC(=O)CCNC(=O)[C@H](CCCNC(=N)N)NC(=O)[C@@H](N)CCCCN)C(C)C)[C@@H](C)CC)C(=O)N[C@@H](Cc1ccc(O)cc1)C(=O)N[C@@H]1C(=O)N[C@@H](CC(N)=O)C(=O)N[C@@H](CCCNC(=N)N)C(=O)N[C@@H](CCN)C(=O)N[C@@H]([C@@H](C)O)C(=O)N[C@H](CCN)C(=O)N[C@@H](CCCCN)C(=O)N[C@H](C(=O)N[C@@H](CCN)C(=O)N[C@@H](CCCNC(=N)N)C(=O)N[C@@H](Cc2ccc(O)cc2)C(=O)O)CSSC1(C)C` [Example 85, Lys-Arg-betaGly-Val-Pro-Ile-Ile-Tyr-Pen-Asn-Arg-Dab-Thr-^DDab-Lys-Cys-Dab-Arg-Tyr] (HELM PEPTIDE1{K.R.[bAla].V.P.I.I.Y.[Pen].N.R.[Dab].T.[NCC[C@@H](N[*:1])C(=O)[*:2]].K.C.[Dab].R.Y}$PEPTIDE1,PEPTIDE1,9:R3-16:R3$$$V2.0), in data set [1] (MCR-1 Af 45), the “Escherichia coli MCR-1 Af 45 MIC” value stood at 0.0625 mg/L. For the same compound, the “Klebsiella pneumoniae SSI3010 MIC” value in data set [2] is 0.125 mg/L. For the same compound, the “Escherichia coli ATCC 25922 MIC” value in data set [3] is on record as 0.0625 mg/L. For the same compound, the “Hemolysis at 0.2 g/L” value in data set [4] was determined as 0%.

Take `CC[C@H](C)[C@H](NC(=O)[C@@H](NC(=O)[C@@H]1C[C@@H](N)CN1C(=O)[C@@H](NC(=O)[C@@H]1CCCN1)C(C)C)[C@@H](C)CC)C(=O)N[C@@H](Cc1ccc(O)cc1)C(=O)N[C@@H]1C(=O)N[C@@H](CC(N)=O)C(=O)N[C@@H](CCCNC(=N)N)C(=O)N[C@@H](CCN)C(=O)N[C@@H]([C@@H](C)O)C(=O)N[C@H](CCN)C(=O)N[C@@H](CCCCN)C(=O)N[C@H](C(=O)N[C@@H](CCN)C(=O)N[C@@H](CCCNC(=N)N)C(=O)N[C@@H](Cc2ccc(O)cc2)C(=O)O)CSSC1(C)C` [Example 25, Pro-Val-Pro((4R)NH2)-Ile-Ile-Tyr-Pen-Asn-Arg-Dab-Thr-^DDab-Lys-Cys-Dab-Arg-Tyr] (HELM PEPTIDE1{P.V.[N[C@@H]1C[C@@H](C(=O)[*:2])N([*:1])C1].I.I.Y.[Pen].N.R.[Dab].T.[NCC[C@@H](N[*:1])C(=O)[*:2]].K.C.[Dab].R.Y}$PEPTIDE1,PEPTIDE1,7:R3-14:R3$$$V2.0): the “Escherichia coli MCR-1 Af 45 MIC” value in data set [1] (MCR-1 Af 45) is no more than 0.03125 mg/L. Further, in data set [2], the “Klebsiella pneumoniae SSI3010 MIC” value came out at 0.0625 mg/L. In addition, in data set [3], the “Escherichia coli ATCC 25922 MIC” value is no more than 0.03125 mg/L. In data set [4], the “Hemolysis at 0.2 g/L” value came out at 0%.

With `CC[C@H](C)[C@H](NC(=O)[C@@H]1C[C@@H](O)CN1C(=O)[C@@H](N)C(C)C)C(=O)N[C@H](C(=O)N[C@@H](Cc1ccc(O)cc1)C(=O)N[C@@H]1C(=O)N[C@@H](CC(N)=O)C(=O)N[C@@H](CCCNC(=N)N)C(=O)N[C@@H](CCN)C(=O)N[C@@H]([C@@H](C)O)C(=O)N[C@H](CCN)C(=O)N[C@@H](CCN)C(=O)N[C@H](C(=O)N[C@@H](CCN)C(=O)N[C@@H](CCCNC(=N)N)C(=O)N[C@@H](Cc2ccc(O)cc2)C(=O)O)CSSC1(C)C)[C@@H](C)O` [Example 174] (HELM PEPTIDE1{V.[Hyp].I.T.Y.[Pen].N.R.[Dab].T.[NCC[C@@H](N[*:1])C(=O)[*:2]].[Dab].C.[Dab].R.Y}$PEPTIDE1,PEPTIDE1,6:R3-13:R3$$$V2.0), the “Escherichia coli MCR-1 Af 45 MIC” value in data set [1] (setting [5]) was 0.0625 mg/L. In addition, in data set [2], the “Klebsiella pneumoniae SSI3010 MIC” value is reported as 0.25 mg/L. Moreover, in data set [3], the “Escherichia coli ATCC 25922 MIC” value worked out at 0.125 mg/L. The “Hemolysis at 0.2 g/L” value in data set [4] is given as 0%.

Turning to `CC[C@H](C)[C@H](NC(=O)[C@@H]1C[C@@H](N)CN1C(=O)[C@@H](NC(=O)[C@@H]1C[C@@H](O)CN1C(=O)CNCCN)C(C)C)C(=O)N[C@H](C(=O)N[C@@H](Cc1ccc(O)cc1)C(=O)N[C@@H]1C(=O)N[C@@H](CC(N)=O)C(=O)N[C@@H](CCCNC(=N)N)C(=O)N[C@@H](CCN)C(=O)N[C@@H]([C@@H](C)O)C(=O)N[C@H](CCN)C(=O)N[C@@H](CCCCN)C(=O)N[C@H](C(=O)N[C@@H](CCN)C(=O)N[C@@H](CCCNC(=N)N)C(=O)N[C@@H](Cc2ccc(O)cc2)C(=O)O)CSSC1(C)C)[C@@H](C)O` [Example 44, Ndab-Hyp-Val-Pro((4R)NH2)-Ile-Thr-Tyr-Pen-Asn-Arg-Dab-Thr-^DDab-Lys-Cys-Dab-Arg-Tyr] (H-[Gly(N-2-aminoethyl)][Hyp]V[Pro(4R-NH2)]ITY[Pen]NR[Dab]T[dDab]KC[Dab]RY-OH; disulfide 8-15), the “Escherichia coli MCR-1 Af 45 MIC” value in data set [1] (MCR-1 Af 45) is recorded as 0.125 mg/L. In addition, the “Klebsiella pneumoniae SSI3010 MIC” value in data set [2] was found to be 0.25 mg/L. Also, the “Escherichia coli ATCC 25922 MIC” value in data set [3] is 0.25 mg/L. Further, the “Hemolysis at 0.2 g/L” value in data set [4] worked out at 0%.

Turning to `CC[C@H](C)[C@H](NC(=O)[C@@H](NC(=O)[C@@H]1CCCN1C(=O)[C@@H](NC(=O)[C@@H]1CCCN1C(=O)[C@H](CCCCN)NC(=O)[C@@H](N)CCCCN)C(C)C)[C@@H](C)CC)C(=O)N[C@@H](Cc1ccc(O)cc1)C(=O)N[C@H]1CSSC[C@@H](C(=O)N[C@@H](CCN)C(=O)N[C@@H](CCCNC(=N)N)C(=O)N[C@H](C(=O)O)C2CC2)NC(=O)[C@H](CCCCN)NC(=O)[C@@H](CCN)NC(=O)[C@H]([C@@H](C)O)NC(=O)[C@H](CCN)NC(=O)[C@H](CCCNC(=N)N)NC(=O)[C@H](CC(N)=O)NC1=O` [Example 81] (HELM PEPTIDE1{K.K.P.V.P.I.I.Y.C.N.R.[Dab].T.[NCC[C@@H](N[*:1])C(=O)[*:2]].K.C.[Dab].R.[O=C(O)[C@@H](N[*:1])C1CC1]}$PEPTIDE1,PEPTIDE1,9:R3-16:R3$$$V2.0), in data set [1] (MCR-1 Af 45), the “Escherichia coli MCR-1 Af 45 MIC” value is given as no more than 0.03125 mg/L. In addition, in data set [2], the “Klebsiella pneumoniae SSI3010 MIC” value came out at 0.125 mg/L. Besides, in data set [3], the “Escherichia coli ATCC 25922 MIC” value is listed as no more than 0.03125 mg/L. Further, in data set [4], the “Hemolysis at 0.2 g/L” value is listed as 0%.

Take `CC[C@H](C)[C@H](NC(=O)[C@@H](NC(=O)[C@@H]1C[C@@H](N)CN1C(=O)[C@@H](NC(=N)N)C(C)C)[C@@H](C)CC)C(=O)N[C@@H](Cc1ccc(O)cc1)C(=O)N[C@@H]1C(=O)N[C@@H](CC(N)=O)C(=O)N[C@@H](CCCNC(=N)N)C(=O)N[C@@H](CCN)C(=O)N[C@@H]([C@@H](C)O)C(=O)N[C@H](CCN)C(=O)N[C@@H](CCCCN)C(=O)N[C@H](C(=O)N[C@@H](CCN)C(=O)N[C@@H](CCCNC(=N)N)C(=O)N[C@@H](Cc2ccc(O)cc2)C(=O)O)CSSC1(C)C` [Example 191] ({Val(Nα-amidino)}-[Pro(4R-NH2)]IIY[Pen]NR[Dab]T[dDab]KC[Dab]RY-OH; disulfide 5-12): the “Escherichia coli MCR-1 Af 45 MIC” value in data set [1] (setting [5]) stood at 0.0625 mg/L. Besides, the “Klebsiella pneumoniae SSI3010 MIC” value in data set [2] stood at 0.0625 mg/L. Further, the “Escherichia coli ATCC 25922 MIC” value in data set [3] was 0.0625 mg/L. The “Hemolysis at 0.2 g/L” value in data set [4] was 0%.

With `CC[C@H](C)[C@H](NC(=O)[C@@H](NC(=O)[C@@H]1CCCN1C(=O)[C@@H](NC(=O)[C@@H]1CCCN1C(=O)[C@H](CCCNC(=N)N)NC(=O)[C@@H](N)CCCCN)C(C)C)[C@@H](C)CC)C(=O)N[C@@H](Cc1ccc(O)cc1)C(=O)N[C@H]1CSSC[C@@H](C(=O)N[C@@H](CCN)C(=O)N[C@@H](CCCNC(=N)N)C(=O)N[C@@H](Cc2ccc(O)cc2)C(=O)O)NC(=O)[C@H](CCCCN)NC(=O)[C@@H](CCN)NC(=O)[C@H]([C@@H](C)O)NC(=O)[C@H](CCN)NC(=O)[C@H](CCCNC(=N)N)NC(=O)[C@H](CC(N)=O)NC1=O` [Example 71] (HELM PEPTIDE1{K.R.P.V.P.I.I.Y.C.N.R.[Dab].T.[NCC[C@@H](N[*:1])C(=O)[*:2]].K.C.[Dab].R.Y}$PEPTIDE1,PEPTIDE1,9:R3-16:R3$$$V2.0), the “Escherichia coli MCR-1 Af 45 MIC” value in data set [1] (MCR-1 Af 45) came to 0.0625 mg/L. The “Klebsiella pneumoniae SSI3010 MIC” value in data set [2] is recorded as 0.0625 mg/L. In addition, the “Escherichia coli ATCC 25922 MIC” value in data set [3] was determined as 0.0625 mg/L. Also, in data set [4], the “Hemolysis at 0.2 g/L” value was 0%.
